melting point [°C] | Compound
> 220 | O=C1/C(=C/c2ccc(N3CCCC3)cc2)Oc2cc(O)ccc21 [Aurone 2a, (2Z)-6-Hydroxy-2-(4-pyrrolidin-1-ylbenzylidene)-1-benzofuran-3(2H)-one]
233 to 235 | COc1ccc2c(c1)c(/C=C1\Oc3cc(OCc4c(Cl)cccc4Cl)ccc3C1=O)cn2C [Aurone 4l, (2Z)-6-[(2,6-Dichlorobenzyl)oxy]-2-[(5-methoxy-1-methyl-1H-indol-3-yl)methylene]-1-benzofuran-3(2H)-one]
278 to 280 | CCn1cc(/C=C2\Oc3cc(O)ccc3C2=O)c2ccccc21 [Aurone 3m, (2Z)-2-[(1-Ethyl-1H-indol-3-yl)methylene]-6-hydroxy-1-benzofuran-3(2H)-one]
249 to 251 | O=C1/C(=C/c2ccc3ccccc3n2)Oc2cc(O)ccc21 [Aurone 3e, (2Z)-6-Hydroxy-2-(quinolin-2-ylmethylene)-1-benzofuran-3(2H)-one]
247 to 249 | Cn1cc(/C=C2\Oc3cc(OCc4c(Cl)cccc4Cl)ccc3C2=O)c2ccccc21 [Aurone 4g, (2Z)-6-[(2,6-Dichlorobenzyl)oxy]-2-[(1-methyl-1H-indol-3-yl)methylene]-1-benzofuran-3(2H)-one]
> 220 | O=C1/C(=C/c2nccc3ccccc23)Oc2cc(O)ccc21 [Aurone 3d, (2Z)-6-Hydroxy-2-(isoquinolin-1-ylmethylene)-1-benzofuran-3(2H)-one]
280 to 282 | O=C1/C(=C/c2c[nH]c3ccccc23)Oc2cc(O)ccc21 [Aurone 3i, (2Z)-6-Hydroxy-2-(1H-indol-3-ylmethylene)-1-benzofuran-3(2H)-one]
211 to 213 | CCn1cc(/C=C2\Oc3cc(OCc4c(Cl)cccc4Cl)ccc3C2=O)c2cc(OC)ccc21 [Aurone 4o, (2Z)-6-[(2,6-Dichlorobenzyl)oxy]-2-[(1-ethyl-5-methoxy-1H-indol-3-yl)methylene]-1-benzofuran-3(2H)-one]
278 to 280 | O=C1/C(=C/c2ccnc3ccccc23)Oc2cc(O)ccc21 [Aurone 3h, (2Z)-6-Hydroxy-2-(quinolin-4-ylmethylene)-1-benzofuran-3(2H)-one]
297 to 299 | COc1ccc2c(c1)c(/C=C1\Oc3c(ccc(O)c3C)C1=O)cn2C [Aurone 3o, (2Z)-6-Hydroxy-2-[(5-methoxy-1-methyl-1H-indol-3-yl)methylene]-7-methyl-1-benzofuran-3(2H)-one]
232 to 234 | Cc1c(OCc2c(Cl)cccc2Cl)ccc2c1O/C(=C\c1cn(C)c3ccccc13)C2=O [Aurone 4i, (2Z)-6-[(2,6-Dichlorobenzyl)oxy]-7-methyl-2-[(1-methyl-1H-indol-3-yl)methylene]-1-benzofuran-3(2H)-one]
206 to 208 | Cn1cc(/C=C2\Oc3cc(OCc4ccccc4Cl)ccc3C2=O)c2ccccc21 [Aurone 4e, (2Z)-6-[(2-Chlorobenzyl)oxy]-2-[(1-methyl-1H-indol-3-yl)methylene]-1-benzofuran-3(2H)-one]
184 to 186 | COc1ccc2c(c1)c(/C=C1\Oc3cc(OCc4ccc(F)cc4Cl)ccc3C1=O)cn2C [Aurone 4j, (2Z)-6-[(2-Chloro-4-fluorobenzyl)oxy]-2-[(5-methoxy-1-methyl-1H-indol-3-yl)methylene]-1-benzofuran-3(2H)-one]
255 to 257 | O=C1/C(=C/c2cccnc2)Oc2cc(O)ccc21 [Aurone 3b, (2Z)-6-Hydroxy-2-(pyridin-3-ylmethylene)-1-benzofuran-3(2H)-one]
200 to 202 | COc1ccc2c(c1)c(/C=C1\Oc3cc(OCc4c(F)cccc4Cl)ccc3C1=O)cn2C [Aurone 4k, (2Z)-6-[(2-Chloro-6-fluorobenzyl)oxy]-2-[(5-methoxy-1-methyl-1H-indol-3-yl)methylene]-1-benzofuran-3(2H)-one]
272 to 274 | Cn1cc(/C=C2\Oc3cc(O)ccc3C2=O)c2ccccc21 [Aurone 3j, (2Z)-6-Hydroxy-2-[(1-methyl-1H-indol-3-yl)methylene]-1-benzofuran-3(2H)-one]
269 to 271 | COc1ccc2nc(/C=C3\Oc4cc(O)ccc4C3=O)ccc2c1 [Aurone 3f, (2Z)-6-Hydroxy-2-[(6-methoxyquinolin-2-yl)methylene]-1-benzofuran-3(2H)-one]
